Experiment: xn = mol fraction of the nth substance listed
Conditions: 273.15 K, Fluid (supercritical or subcritical phases), x1 = 0.97; for mass density: Vibrating tube method; for speed of sound: Frequency=5 MHz, Pulse-echo method

O=C=O [carbon dioxide] + CO
Conditions	mass density [kg/m3]	speed of sound [m/s]
14050 kPa	992.7	–
14075 kPa	992.85	–
14100 kPa	992.93	–
14125 kPa	993.06	–
14150 kPa	993.17	–
14175 kPa	993.26	–
14200 kPa	993.38	–
14225 kPa	993.5	–
14250 kPa	993.58	–
14275 kPa	993.7	–
14300 kPa	993.82	–
14325 kPa	993.9	–
14350 kPa	994	–
14375 kPa	994.12	–
14400 kPa	994.23	–
14425 kPa	994.35	–
14450 kPa	994.42	–
14475 kPa	994.54	–
14500 kPa	994.65	–
14525 kPa	994.75	–
14550 kPa	994.85	–
14575 kPa	994.96	–
14600 kPa	995.07	–
14625 kPa	995.18	–
14650 kPa	995.29	–
14675 kPa	995.37	–
14700 kPa	995.5	–
14725 kPa	995.62	–
14750 kPa	995.7	–
14775 kPa	995.81	–
14800 kPa	995.94	–
14825 kPa	996.02	–
14850 kPa	996.12	–
14875 kPa	996.27	–
14900 kPa	996.34	688.9
14925 kPa	996.43	–
14950 kPa	996.51	–
14975 kPa	996.65	–
15000 kPa	996.75	–
15025 kPa	996.84	–
15050 kPa	996.94	–
15075 kPa	997.08	–
15100 kPa	997.16	–
15125 kPa	997.24	–
15150 kPa	997.37	–
15175 kPa	997.49	–
15200 kPa	997.57	–
15225 kPa	997.66	–
15250 kPa	997.8	–
15275 kPa	997.89	–
15300 kPa	997.98	–
15325 kPa	998.14	–
15350 kPa	998.19	–
15375 kPa	998.3	–
15400 kPa	998.38	–
15425 kPa	998.5	–
15450 kPa	998.63	–
15475 kPa	998.71	–
15500 kPa	998.79	–
15525 kPa	998.89	–
15550 kPa	999.03	–
15575 kPa	999.11	–
15600 kPa	999.22	–
15625 kPa	999.34	–
15650 kPa	999.41	–
15675 kPa	999.52	–
15700 kPa	999.63	–
15725 kPa	999.76	–
15750 kPa	999.85	–
15775 kPa	999.93	–
15800 kPa	1000.03	–
15825 kPa	1000.09	–
15850 kPa	1000.25	–
15875 kPa	1000.33	–
15900 kPa	1000.44	–
15925 kPa	1000.5	–
15950 kPa	1000.59	–
15975 kPa	1000.74	–
16000 kPa	1000.82	–
16025 kPa	1000.92	–
16050 kPa	1001.03	–
16075 kPa	1001.14	–
16100 kPa	1001.23	–
16125 kPa	1001.34	–
16150 kPa	1001.44	–
16175 kPa	1001.55	–
16200 kPa	1001.64	–
16225 kPa	1001.73	–
16250 kPa	1001.84	–
16275 kPa	1001.95	–
16300 kPa	1002.05	–
16325 kPa	1002.16	–
16350 kPa	1002.26	–
16375 kPa	1002.35	–
16400 kPa	1002.44	–
16425 kPa	1002.55	–
16450 kPa	1002.64	–
16475 kPa	1002.73	–
16500 kPa	1002.82	–
16525 kPa	1002.92	–
16550 kPa	1003.07	–
16575 kPa	1003.15	–
16600 kPa	1003.23	–
16625 kPa	1003.31	–
16650 kPa	1003.43	–
16675 kPa	1003.55	–
16700 kPa	1003.63	–
16725 kPa	1003.75	–
16750 kPa	1003.86	–
16775 kPa	1003.93	–
16800 kPa	1004.01	–
16825 kPa	1004.09	–
16850 kPa	1004.25	–
16875 kPa	1004.31	–
16900 kPa	1004.4	–
16925 kPa	1004.53	–
16950 kPa	1004.6	–
16975 kPa	1004.73	–
17000 kPa	1004.82	–
17025 kPa	1004.89	–
17050 kPa	1005.04	–
17075 kPa	1005.11	–
17100 kPa	1005.21	–
17125 kPa	1005.3	–
17150 kPa	1005.42	–
17175 kPa	1005.49	–
17200 kPa	1005.63	–
17225 kPa	1005.7	–
17250 kPa	1005.78	–
17275 kPa	1005.9	–
17300 kPa	1006.03	–
17325 kPa	1006.1	–
17350 kPa	1006.19	–
17375 kPa	1006.3	–
17400 kPa	1006.36	–
17425 kPa	1006.5	–
17450 kPa	1006.55	–
17475 kPa	1006.68	–
17500 kPa	1006.76	–
17525 kPa	1006.86	–
17550 kPa	1006.92	–
17575 kPa	1007.06	–
17600 kPa	1007.11	–
17625 kPa	1007.24	–
17650 kPa	1007.37	–
17675 kPa	1007.42	–
17700 kPa	1007.56	–
17725 kPa	1007.61	–
17750 kPa	1007.74	–
17775 kPa	1007.82	–
17800 kPa	1007.92	–
17825 kPa	1008.05	–
17850 kPa	1008.1	–
17875 kPa	1008.22	–
17900 kPa	1008.28	–
17925 kPa	1008.41	–
17950 kPa	1008.47	–
17975 kPa	1008.58	–
18000 kPa	1008.63	–
18025 kPa	1008.76	–
18050 kPa	1008.81	–
18075 kPa	1008.93	–
18100 kPa	1009.05	–
18125 kPa	1009.17	–
18150 kPa	1009.21	–
18175 kPa	1009.33	–
18200 kPa	1009.44	–
18225 kPa	1009.49	–
18250 kPa	1009.61	–
18275 kPa	1009.68	–
18300 kPa	1009.76	–
18325 kPa	1009.88	–
18350 kPa	1009.93	–
18375 kPa	1010.03	–
18400 kPa	1010.15	–
18425 kPa	1010.26	–
18450 kPa	1010.33	–
18475 kPa	1010.41	–
18500 kPa	1010.52	–
18525 kPa	1010.58	–
18550 kPa	1010.7	–
18575 kPa	1010.82	–
18600 kPa	1010.88	–
18625 kPa	1010.99	–
18650 kPa	1011.1	–
18675 kPa	1011.15	–
18700 kPa	1011.25	–
18725 kPa	1011.35	–
18750 kPa	1011.46	–
18775 kPa	1011.49	–
18800 kPa	1011.59	–
18825 kPa	1011.7	–
18850 kPa	1011.81	–
18875 kPa	1011.88	–
18900 kPa	1011.94	–
18925 kPa	1012.05	–
18950 kPa	1012.15	–
18975 kPa	1012.26	–
19000 kPa	1012.37	–
19025 kPa	1012.45	–
19050 kPa	1012.49	–
19075 kPa	1012.6	–
19100 kPa	1012.7	–
19125 kPa	1012.77	–
19150 kPa	1012.83	–
19175 kPa	1012.93	–
19200 kPa	1013.04	–
19225 kPa	1013.15	–
19250 kPa	1013.25	–
19275 kPa	1013.27	–
19300 kPa	1013.37	–
19325 kPa	1013.48	–
19350 kPa	1013.58	–
19375 kPa	1013.61	–
19400 kPa	1013.72	–
19425 kPa	1013.82	–
19450 kPa	1013.91	–
19475 kPa	1013.95	–
19500 kPa	1014.05	–
19525 kPa	1014.15	–
19550 kPa	1014.24	–
19575 kPa	1014.34	–
19600 kPa	1014.44	–
19625 kPa	1014.47	–
19650 kPa	1014.56	–
19675 kPa	1014.66	–
19700 kPa	1014.76	–
19725 kPa	1014.86	–
19750 kPa	1014.88	–
19775 kPa	1014.98	–
19800 kPa	1015.08	–
19825 kPa	1015.19	–
19850 kPa	1015.29	–
19875 kPa	1015.31	–
19900 kPa	1015.41	–
19910 kPa	–	735.5
19925 kPa	1015.5	–
19950 kPa	1015.6	–
19975 kPa	1015.7	–
20000 kPa	1015.77	–
24940 kPa	–	776.2
29980 kPa	–	812.6
35030 kPa	–	845.6
